PMC4512654 (Analytical biochemistry, 2014)

How the values were obtained:
FXIIIa = details: coupled uv/vis assay, derived earlier; cited from earlier work
[1] = molecular target: T1, Activated Factor XIII (FXIIIa) (Homo sapiens, UniProt P00488); assay type: biochemical
T1 sequence (P00488 39-732 limits assumed): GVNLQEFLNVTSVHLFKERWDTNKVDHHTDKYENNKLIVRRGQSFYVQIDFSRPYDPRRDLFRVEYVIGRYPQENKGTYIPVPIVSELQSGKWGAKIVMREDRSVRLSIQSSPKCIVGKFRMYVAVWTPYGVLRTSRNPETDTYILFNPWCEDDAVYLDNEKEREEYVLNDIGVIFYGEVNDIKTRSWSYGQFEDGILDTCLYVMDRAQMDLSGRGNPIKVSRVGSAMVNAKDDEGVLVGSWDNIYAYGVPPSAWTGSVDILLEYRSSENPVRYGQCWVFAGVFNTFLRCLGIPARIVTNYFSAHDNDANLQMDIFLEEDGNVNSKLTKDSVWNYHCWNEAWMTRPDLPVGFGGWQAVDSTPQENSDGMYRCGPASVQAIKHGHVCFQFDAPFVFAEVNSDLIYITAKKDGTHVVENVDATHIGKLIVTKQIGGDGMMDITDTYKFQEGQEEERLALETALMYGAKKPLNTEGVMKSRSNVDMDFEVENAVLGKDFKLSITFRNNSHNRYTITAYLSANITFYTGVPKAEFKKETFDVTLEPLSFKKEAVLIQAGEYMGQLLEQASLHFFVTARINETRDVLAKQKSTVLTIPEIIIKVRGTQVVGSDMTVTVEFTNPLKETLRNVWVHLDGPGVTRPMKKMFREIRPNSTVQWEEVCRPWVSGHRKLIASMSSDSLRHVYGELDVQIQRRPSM

| Sequence | Km (FXIIIa) | also measured |
| --- | --- | --- |
| NQEQVSPLTLLKLGN [α2AP (1–15)] | 459 ± 50 µM |  |
| FQSGQVLAALPRTSR [TAFI (1–15)] |  | Km weaker than α2AP (1–15) K12R and S. Aureus Fnb A (100–114) [1]: more than 5 fold |
| NQEKVSPLTLLKLGN [α2AP (1–15) Q4K] | 426 ± 93 µM |  |
| SGDQRQVDLIPKKAT [S. Aureus Fnb A (100–114)] |  | Km better than S. Aureus Fnb A (100–110) ([1]; P < 0.05): almost two-fold better |
